Data: US8771652B2, “Methods of blocking ultraviolet radiation and promoting skin growth using terpenes and terpenoids” (New York University, priority 2009, dated 2014)
Read-outs that look alike come from different tables or passages of the source.

Tests used:
[1] = tested on: breast cancer; conditions: rats, without any evidence of toxicity; cited from earlier work
[2] = tested on: melanoma cells; conditions: topical pretreatment but not post-treatment; cited from earlier work
[3] = tested on: UVB-induced non-melanoma tumors; conditions: mouse, in vivo; cited from earlier work
[4] = tested on: epidermis (keratinocytes, keratin layer) of SKH1 hairless mice; assay: Histology of skin after terpene pre-feed and UVR; assay type: in vivo, mouse; conditions: for keratinocyte formation: ingestion, animal models
Description: Histopathological diagnosis was performed on the skin samples.
Animals for the histology and microarray analysis were euthanized 24 hours after 4 days of terpene pre-feed and the UVR exposure. Tissue samples from skin and other organs were frozen and prepared for histological diagnosis and for microarray analysis, which consisted of testing gene expression by utilizing Affymetrix mouse microarray chips containing about 39,000 transcripts with 45,101 probe sets.

[5] = in vivo; cited from earlier work
[6] = tested on: skin; conditions: mouse, in vivo; cited from earlier work
[7] = tested on: skin; conditions: guinea pig, in vivo; cited from earlier work
[8] = tested on: skin; conditions: in vivo; cited from earlier work
[9] = tested on: gene expression in mouse dorsal skin; assay: Affymetrix gene expression microarray of mouse skin after terpene and UVR; assay type: in vivo; conditions: for loricrin and vascular endothelial growth factor (VEGF) genes / matrix metalloproteinases: ingestion, animal models; for inflammation genes induced by UVR: per os daily for 4 days in 30 microL droplets prior to irradiation
Description: Animals for the histology and microarray analysis were euthanized 24 hours after 4 days of terpene pre-feed and the UVR exposure.
Gene expression microarray analysis was performed as follows: RNA was extracted from a 0.1 g sample of mouse skin and an equal quantity of keratinocytes by using the TRIZOL reagent (Invitrogen, Carlsbad, Calif., USA) according to the manufacture's instructions and 200 μg of total RNA was used for the isolation of poly A+ mRNA by using Oligotex mRNA mini columns (QIAGEN, Valencia, Calif., USA). The final centrifugation was performed after the incubation with 1/10 volume of 3.0 M NaOAc, 2.5 volumes of ethanol and 1 μl glycogen (Boehringer Mannheim GmbH, Mannheim, Germany) at −20° C. overnight. Then the pellet was resuspended in diethylpyrocarbonate (DEPC)-treated water. RNA was labeled with biotin and hybridized to a Mouse genome 430—2 GeneChip® microarray (Affymetrix, Inc. Santa Clara, Calif., USA). Data from the Affymetrix mouse expression array chip were imported into the BRB-ArrayTools Version 3.3.0 developed by the Biometric Research Branch of the U.S. National Cancer Institute for normalization and analysis. […] A value of P≦0.001 was chosen as statistically significant. […] For these calculations the entire list of genes on the Affymetrix (mouse 430—2) microarray was used as the reference list.
Mice were treated with either UVR or UVR+beta-damascenone, and samples of tissue were removed from the dorsal skin for RNA extraction and analysis on an Affymetrix Microarray System utilizing mouse whole genome array chips Affy 430—2. The UVR sample served as the control in this preliminary experiment.

[10] = tested on: skin; conditions: in vivo; cited from earlier work; remark: listed apart in the source
[11] = tested on: skin of SKH1 hairless mice; assay: Sunburn (erythema) prevention by terpenes with solar-spectrum UVR exposure; assay type: in vivo, mouse; conditions: 4 daily 30 microL droplets before 15 minute exposure to 3.0 kJ/m2 UVR
Description: All experiments were performed with female hairless mice (SKH1) utilizing solar spectrum ultraviolet radiation (UVR). Each experiment was performed in triplicate including controls and UVR-exposed mice and included a total of 22 mice per experiment for a total of 66 mice. The protocol included untreated mice, UVR-irradiated mice as controls for the terpene treatments, UVR+terpene mice and terpene-only mice.
Four solar simulating FS-20 fluorescent lamps were used to deliver 3 kJ/m^2 measured by a calibrated International Light UV radiometer at the lamp distance between 20 to 24 cm. The UVR dose was selected to be just above the minimal erythemal dose for producing a ‘sunburn’ reaction in mouse skin (this is very similar to the minimal erythemal dose of fair-skinned humans).
Each terpene was given to each mouse per os (by mouth) in 15-30 μL droplets (˜15-30 μg) via micropipette once each day for 4 consecutive days prior to and/or subsequent to UVR exposure. Animals were observed and photographed every 24 hours for a period of 6-7 days after the irradiation. Each terpene was administered in pure form. […] The UVR exposure of 3 kJ/m^2 was delivered seven (7) days after the last dose was administered. The animals were observed and photographed. […] Liponeate, a triglyceride fraction of coconut oil was used as a diluent. Concentration 1, 10 and 100% were tested. […]

[12] = tested on: colon cancer; conditions: rats, 8 mg/kg, p<0.01; cited from earlier work
[13] = tested on: human transplanted pancreatic adenocarcinomas; conditions: in vivo; cited from earlier work
[14] = tested on: inflammation-relevant gene expression in rat skin; conditions: cited from earlier work
[15] = at concentrations in normal strength grapefruit juice (approximately 0.0035%, or 35 ppm); cited from earlier work

Question: Which “initiation of breast cancer” value [1] does the source give for C=C(C)[C@H]1CC=C(C)CC1 [d-limonene] here?
Answer: Its value is “almost completely prevented”.

Question: Which “levels of UV-induced reactive oxygen species” value [2] does the source give for C=C(C)[C@@H]1CC=C(CO)CC1 [perillyl alcohol] here?
Answer: Its value is “markedly reduced”.

Question: And the UVB-induced non-melanoma tumors [3]?
Answer: Its UVB-induced non-melanoma tumors is “reduction”.

Question: And the “initiation of breast cancer” value [1]?
Answer: Its value is “almost completely prevented”.

Question: With C/C=C/C(=O)C1=C(C)C=CCC1(C)C [beta-damascenone] as the compound, how does the “keratinizing layer in the epidermis, terpene+UVR in comparison to UVR” value ([4]; histological observations) read?
Answer: The value was “greatly increased”.

Question: And the keratinocyte formation [4]?
Answer: Its keratinocyte formation is “increased keratinocyte formation”.

Question: And the LD50 [5]?
Answer: Its LD50 is “greater than 2.0 g/kg”.

Question: And the skin irritation [6]?
Answer: The skin irritation was “No skin irritation”.

Question: And the skin irritation [7]?
Answer: The skin irritation was “No skin irritation”.

Question: And the phototoxicity or photoallergenity [8]?
Answer: Its phototoxicity or photoallergenity is “No phototoxicity or photoallergenity”.

Question: What about the “significantly altered up-regulated category at level 4 of the Gene Ontology Tree” value ([9]; UVR+terpene relative to UVR only, p<0.05) of the same compound?
Answer: The value was “epidermal cell differentiation”.

Question: What about the “loricrin and vascular endothelial growth factor (VEGF) genes” value [9] of the same compound?
Answer: The value was “upregulation”.

Question: What about the matrix metalloproteinases [9] of the same compound?
Answer: Its matrix metalloproteinases is “downregulation”.

Question: What about the “inflammation genes induced by UVR” value [9] of the same compound?
Answer: The value was “blocked”.

Question: What about the inflammation-relevant genes ([9]; terpene+UVR relative to UVR only) of the same compound?
Answer: Its inflammation-relevant genes is “strongly down-regulated”.

Question: And the “number of gene categories significantly down-regulated” value ([9]; terpene+UVR relative to UVR only, p<0.05)?
Answer: Its value is 13 categories.

Question: And the skin irritation [10]?
Answer: Its skin irritation is “No skin irritation”.

Question: And the “cutaneous inflammation and erythema associated with UVR exposure” value [11]?
Answer: The value was “blocked”.

Question: For Oc1ccc(C=Cc2cc(O)cc(O)c2)cc1 [resveratrol], which “inhibition of colon cancer” value [12] is on record?
Answer: Its value is 67%.

Question: For CC(C)=CCC/C(C)=C/CO [Geraniol], which “effectiveness against tumor growth relative to perillyl alcohol” value [13] is on record?
Answer: Its value is “about 5 fold”.

Question: For vitamin A, which “inflammation-relevant gene expression alterations caused by x-rays blocked” value [14] is on record?
Answer: Its value is “about 80%”.

Question: And the “gene expression in controls” value ([14]; unirradiated controls)?
Answer: Its value is “no effect”.

Question: What does the source list for C=C(C)[C@@H]1CCC2=CC(=O)C[C@@H](C)[C@]2(C)C1 [nootkatone]?
Answer: keratinocyte formation [4]: increased keratinocyte formation; toxicity [15]: does not appear to be toxic; loricrin and vascular endothelial growth factor (VEGF) genes [9]: upregulation; matrix metalloproteinases [9]: downregulation; inflammation genes induced by UVR [9]: blocked; cutaneous inflammation and erythema associated with UVR exposure [11]: blocked
